Key:
[1] = target: T1, Prostaglandin G/H synthase 2 (Homo sapiens, UniProt P35354)
T1 sequence (P35354 whole entry): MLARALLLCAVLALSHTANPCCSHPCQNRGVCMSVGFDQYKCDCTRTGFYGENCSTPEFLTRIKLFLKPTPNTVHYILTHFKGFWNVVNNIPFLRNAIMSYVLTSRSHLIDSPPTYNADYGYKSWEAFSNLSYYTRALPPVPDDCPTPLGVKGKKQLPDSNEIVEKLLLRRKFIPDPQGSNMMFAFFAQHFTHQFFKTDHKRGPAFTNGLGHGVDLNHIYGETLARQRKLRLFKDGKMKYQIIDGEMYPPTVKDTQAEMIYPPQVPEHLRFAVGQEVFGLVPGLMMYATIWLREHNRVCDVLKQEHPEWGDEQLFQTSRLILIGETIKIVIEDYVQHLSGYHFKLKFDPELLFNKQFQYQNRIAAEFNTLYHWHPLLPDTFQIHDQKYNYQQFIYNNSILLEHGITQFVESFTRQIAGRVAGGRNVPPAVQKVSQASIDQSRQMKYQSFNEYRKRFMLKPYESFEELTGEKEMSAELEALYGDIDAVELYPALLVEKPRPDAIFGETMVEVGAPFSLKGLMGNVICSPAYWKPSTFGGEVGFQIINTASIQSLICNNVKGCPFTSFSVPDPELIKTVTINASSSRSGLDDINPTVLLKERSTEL
Description: Inhibition of the human Prostaglandin G/H synthase 2 was determined by thin-layer chromatography assay

[2] = target: T2, Prostaglandin G/H synthase 1 (Ovis aries, UniProt P05979); experiment: Inhibition of the ovine Prostaglandin G/H synthase 1 was determined by thin-layer chromatography assay
T2 sequence (P05979 whole entry): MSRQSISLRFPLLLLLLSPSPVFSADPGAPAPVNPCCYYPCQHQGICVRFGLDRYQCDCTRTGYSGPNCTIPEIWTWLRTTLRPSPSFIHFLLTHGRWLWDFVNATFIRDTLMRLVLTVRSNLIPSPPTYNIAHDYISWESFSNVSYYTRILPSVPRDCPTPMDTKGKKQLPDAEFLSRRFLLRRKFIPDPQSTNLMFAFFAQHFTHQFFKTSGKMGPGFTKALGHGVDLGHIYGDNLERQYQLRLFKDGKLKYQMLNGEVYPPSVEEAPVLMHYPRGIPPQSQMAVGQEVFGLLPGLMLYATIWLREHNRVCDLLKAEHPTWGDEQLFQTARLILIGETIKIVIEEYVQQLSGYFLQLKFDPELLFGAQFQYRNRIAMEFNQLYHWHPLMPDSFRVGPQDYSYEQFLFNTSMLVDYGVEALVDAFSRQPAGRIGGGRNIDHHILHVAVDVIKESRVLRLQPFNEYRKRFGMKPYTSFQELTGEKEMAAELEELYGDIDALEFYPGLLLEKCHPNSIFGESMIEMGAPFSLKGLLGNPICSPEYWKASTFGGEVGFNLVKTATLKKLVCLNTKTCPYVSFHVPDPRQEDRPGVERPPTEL

[3] = Inhibitory concentration against prostaglandin E2
[4] = target: T3, Prostaglandin G/H synthase 2 (Mus musculus, UniProt Q05769, R106A)
T3 sequence (Q05769 18-604 R106A limits assumed): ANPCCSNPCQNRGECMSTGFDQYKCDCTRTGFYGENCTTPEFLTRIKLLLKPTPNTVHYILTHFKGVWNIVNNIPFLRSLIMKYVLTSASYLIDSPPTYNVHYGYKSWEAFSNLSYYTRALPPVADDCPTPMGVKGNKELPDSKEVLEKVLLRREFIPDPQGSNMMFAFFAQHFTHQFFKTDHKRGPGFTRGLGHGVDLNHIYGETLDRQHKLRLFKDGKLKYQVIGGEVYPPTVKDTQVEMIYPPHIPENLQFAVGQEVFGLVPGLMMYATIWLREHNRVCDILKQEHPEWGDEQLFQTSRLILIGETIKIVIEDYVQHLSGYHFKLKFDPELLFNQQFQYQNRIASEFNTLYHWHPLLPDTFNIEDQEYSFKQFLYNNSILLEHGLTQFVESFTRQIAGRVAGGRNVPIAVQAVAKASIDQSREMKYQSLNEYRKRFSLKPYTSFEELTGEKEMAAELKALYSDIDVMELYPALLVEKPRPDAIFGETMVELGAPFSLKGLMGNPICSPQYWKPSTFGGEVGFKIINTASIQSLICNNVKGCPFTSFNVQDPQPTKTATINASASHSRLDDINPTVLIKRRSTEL
Description: Inhibition of the Arg120Ala murine COX-2 mutant enzyme

[5] = target: T4, Prostaglandin G/H synthase 2 (Mus musculus, UniProt Q05769); experiment: Inhibition of the murine wild type Prostaglandin G/H synthase 2
T4 sequence (Q05769 whole entry): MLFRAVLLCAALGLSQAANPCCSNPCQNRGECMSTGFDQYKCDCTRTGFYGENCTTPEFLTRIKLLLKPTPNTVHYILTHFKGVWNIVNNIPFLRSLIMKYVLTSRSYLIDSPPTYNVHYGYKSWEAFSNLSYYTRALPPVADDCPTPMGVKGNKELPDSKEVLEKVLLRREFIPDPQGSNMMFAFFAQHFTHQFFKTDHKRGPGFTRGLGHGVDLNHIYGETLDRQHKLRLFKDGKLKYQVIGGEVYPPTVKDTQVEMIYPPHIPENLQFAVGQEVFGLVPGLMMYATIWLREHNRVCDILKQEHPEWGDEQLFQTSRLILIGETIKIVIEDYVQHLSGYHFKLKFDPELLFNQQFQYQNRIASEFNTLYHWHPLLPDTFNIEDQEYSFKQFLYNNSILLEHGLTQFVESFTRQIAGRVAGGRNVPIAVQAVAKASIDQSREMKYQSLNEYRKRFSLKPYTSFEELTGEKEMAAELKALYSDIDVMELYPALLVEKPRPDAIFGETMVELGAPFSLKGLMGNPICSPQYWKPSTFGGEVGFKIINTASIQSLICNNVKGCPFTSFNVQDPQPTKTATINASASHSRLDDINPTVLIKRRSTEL

[6] = target: T3, Prostaglandin G/H synthase 2; experiment: Inhibition of the murine Arg120Ala mutant type COX-2

SMILES | IC50 [1] | IC50 [2] | IC50 [5] | IC50 [6] | IC50 [3] | IC50 [4]
COC(=O)[C@@H](C)NC(=O)c1ccccc1Nc1c(Cl)ccc(C)c1Cl | 6000 nM | 2700 nM | – | – | – | –
COC(=O)CNC(=O)c1ccccc1Nc1c(Cl)ccc(C)c1Cl | 1200 nM | 70 nM | – | – | – | –
Cc1ccc(Cl)c(Nc2ccccc2C(=O)NCCO)c1Cl | 1000 nM | 600 nM | – | – | – | –
COCCCNC(=O)c1ccccc1Nc1c(Cl)ccc(C)c1Cl | 11000 nM | 250 nM | – | – | – | –
COC(=O)c1ccccc1Nc1c(Cl)ccc(C)c1Cl | 4000 nM | 17000 nM | – | – | – | –
CCCCCCCCNC(=O)c1ccccc1Nc1c(Cl)ccc(C)c1Cl | 60 nM | 50 nM | – | – | – | –
Cc1ccc(Cl)c(Nc2ccccc2C(=O)NCCOc2ccccc2)c1Cl | 66000 nM | 150 nM | – | – | 1800 nM | 550 nM
Cc1ccc(Cl)c(Nc2ccccc2C(=O)O)c1Cl [MECLOFENAMIC ACID] | 40 nM | 50 nM | 200 nM | 400 nM | – | –
Cc1ccc(Cl)c(Nc2ccccc2C(=O)NCCCCl)c1Cl | 2400 nM | 60 nM | – | – | – | –
COCCNC(=O)c1ccccc1Nc1c(Cl)ccc(C)c1Cl | 3000 nM | 140 nM | – | – | – | –
Cc1ccc(Cl)c(Nc2ccccc2C(=O)N[C@@H](C)C(=O)O)c1Cl | 33000 nM | 6000 nM | – | – | – | –
Cc1ccc(Cl)c(Nc2ccccc2C(=O)NCCBr)c1Cl | 2000 nM | 70 nM | – | – | – | –
COC(=O)[C@H](C)NC(=O)c1ccccc1Nc1c(Cl)ccc(C)c1Cl | 2600 nM | 800 nM | – | – | – | –
Cc1ccc(Cl)c(Nc2ccccc2C(=O)N[C@H](C)C(=O)O)c1Cl | > 33000 nM | 8000 nM | – | – | – | –
CCOC(=O)CNC(=O)c1ccccc1Nc1c(Cl)ccc(C)c1Cl | 4000 nM | 200 nM | – | – | – | –
Cc1ccc(Cl)c(Nc2ccccc2C(=O)NCC(=O)O)c1Cl | 300 nM | 400 nM | – | – | – | –

Continued, in another order:

IC50 [1] | IC50 [2] | IC50 [5] | IC50 [6] | SMILES | IC50 [3] | IC50 [4]
4000 nM | 4500 nM | – | – | Cc1ccc(Cl)c(Nc2ccccc2C(=O)NCCc2ccccc2)c1Cl | – | –
55000 nM | 500 nM | – | – | CONC(=O)c1ccccc1Nc1c(Cl)ccc(C)c1Cl | – | –
66000 nM | 1000 nM | – | – | Cc1ccc(Cl)c(Nc2ccccc2C(=O)NOCc2ccccc2)c1Cl | – | –
> 20000 nM | > 20000 nM | – | – | CC(=O)Nc1ccc(OC(=O)c2ccccc2Nc2c(Cl)ccc(C)c2Cl)cc1 | – | –
> 2000 nM | > 2000 nM | – | – | CNC(=O)c1ccccc1Nc1c(Cl)ccc(C)c1Cl | – | –
6300 nM | 5000 nM | – | – | Cc1ccc(Cl)c(Nc2ccccc2C(=O)NNCc2ccccc2)c1Cl | – | –
66000 nM | 200 nM | – | – | Cc1ccc(Cl)c(Nc2ccccc2C(=O)NOCc2ccc([N+](=O)[O-])cc2)c1Cl | – | –
66000 nM | 8000 nM | – | – | Cc1ccc(Cl)c(Nc2ccccc2C(=O)NOC(C)(C)C)c1Cl | – | –

Source: ChEMBL document CHEMBL1135055, “Amide derivatives of meclofenamic acid as selective cyclooxygenase-2 inhibitors” (Bioorg Med Chem Lett, 2002)
